Species: Rattus norvegicus
Experiment: DrugMatrix - Regimen: Daily Repeat
Type: toxicity, organism-based, Sprague-Dawley
Parameters: regimen Daily Repeat, gender Male, age 6-8 weeks
Details: in vivo, po, route oral GAVAGE, vehicle .5 % CMC; for ABSOLUTE BASOPHIL / ABSOLUTE EOSINOPHIL / ABSOLUTE LYMPHOCYTE / ABSOLUTE MONOCYTE / ABSOLUTE SEGMENTED NEUTROPHIL / BASOPHIL / EOSINOPHIL / ERYTHROCYTE COUNT / HEMATOCRIT / HEMOGLOBIN / LEUKOCYTE COUNT / LYMPHOCYTE / MEAN CORPUSCULAR HEMOGLOBIN / MEAN CORPUSCULAR HEMOGLOBIN CONCENTRATION / MEAN CORPUSCULAR VOLUME / MONOCYTE / NEUTROPHIL / NUCLEATED RED BLOOD CELLS / PLATELET COUNT: tissue Blood; for ALANINE AMINOTRANSFERASE / ALBUMIN / ALKALINE PHOSPHATASE / ASPARTATE AMINOTRANSFERASE / BLOOD UREA NITROGEN / CARBON DIOXIDE / CHLORIDE / CHOLESTEROL / CREATINE PHOSPHOKINASE / CREATININE / GLUCOSE / LACTATE DEHYDROGENASE / LIPASE / PHOSPHORUS / POTASSIUM / SODIUM / TOTAL BILIRUBIN / TOTAL PROTEIN / URIC ACID: tissue Plasma
[1] = 580 mg/kg, 120 h, dose level High, time 5 day
[2] = […], 72 h, dose 2.4 mg/Kg, dose level Low, time 3 day
[3] = […], 120 h, dose 2.4 mg/Kg, dose level Low, time 5 day

`CN1C(=O)COc2c(C(=O)NC3CN4CCC3CC4)cc(Cl)cc21` (centres undefined) [AZASETRON] was tested, and the “ABSOLUTE BASOPHIL” value [1] was 0 CELLS/uL, the “ABSOLUTE EOSINOPHIL” value [1] was 63.33 CELLS/uL and the “ABSOLUTE LYMPHOCYTE” value [1] was 14100 CELLS/uL. For the same compound, the “ABSOLUTE MONOCYTE” value [1] was 291 CELLS/uL, the “ABSOLUTE SEGMENTED NEUTROPHIL” value [1] was 979 CELLS/uL and the BASOPHIL [1] was 0%. For the same compound, the EOSINOPHIL [1] was 0.33%, the “ERYTHROCYTE COUNT” value [1] was 6.34 x10E6/uL and the HEMATOCRIT [1] was 38%. The HEMOGLOBIN [1] was 15.07 G/DL, the “LEUKOCYTE COUNT” value [1] was 15.43 x10E3/uL and the LYMPHOCYTE [1] was 91.67%. The “MEAN CORPUSCULAR HEMOGLOBIN” value [1] was 23.8 pg, the “MEAN CORPUSCULAR HEMOGLOBIN CONCENTRATION” value [1] was 39.67 G/DL and the “MEAN CORPUSCULAR VOLUME” value [1] was 60 fL. The MONOCYTE [1] was 2%, the NEUTROPHIL [1] was 6% and the “NUCLEATED RED BLOOD CELLS” value [1] was 0 /100WBC. The “PLATELET COUNT” value [1] was 1316.67 x10E3/uL, the “ALANINE AMINOTRANSFERASE” value [1] was 58.33 u/L and the ALBUMIN [1] was 4.3 G/DL. For the same compound, the “ALKALINE PHOSPHATASE” value [1] was 295 u/L, the “ASPARTATE AMINOTRANSFERASE” value [1] was 101.33 u/L and the “BLOOD UREA NITROGEN” value [1] was 21.67 mg/dL. The “CARBON DIOXIDE” value [1] was 24 mmol/L, the CHLORIDE [1] was 100.67 MEQ/L and the CHOLESTEROL [1] was 74.33 mg/dL. The “CREATINE PHOSPHOKINASE” value [1] was 955.33 u/L, the CREATININE [1] was 0.23 mg/dL and the GLUCOSE [1] was 160 mg/dL. The “LACTATE DEHYDROGENASE” value [1] was 604.33 u/L, the LIPASE [1] was 10.33 u/L and the PHOSPHORUS [1] was 12.33 mg/dL. The POTASSIUM [1] was 6.37 MEQ/L, the SODIUM [1] was 144.33 MEQ/L and the “TOTAL BILIRUBIN” value [1] was 0.2 mg/dL. The “TOTAL PROTEIN” value [1] was 6.2 G/DL, the “URIC ACID” value [1] was 2.43 mg/dL and the “ABSOLUTE BASOPHIL” value [2] was 0 CELLS/uL. For the same compound, the “ABSOLUTE EOSINOPHIL” value [2] was 0 CELLS/uL, the “ABSOLUTE LYMPHOCYTE” value [2] was 13884.67 CELLS/uL and the “ABSOLUTE MONOCYTE” value [2] was 148 CELLS/uL. For the same compound, the “ABSOLUTE SEGMENTED NEUTROPHIL” value [2] was 1867.33 CELLS/uL, the BASOPHIL [2] was 0% and the EOSINOPHIL [2] was 0%. For the same compound, the “ERYTHROCYTE COUNT” value [2] was 5.62 x10E6/uL, the HEMATOCRIT [2] was 34.23% and the HEMOGLOBIN [2] was 13.3 G/DL. For the same compound, the “LEUKOCYTE COUNT” value [2] was 15.9 x10E3/uL, the LYMPHOCYTE [2] was 87.33% and the “MEAN CORPUSCULAR HEMOGLOBIN” value [2] was 23.7 pg. The “MEAN CORPUSCULAR HEMOGLOBIN CONCENTRATION” value [2] was 38.87 G/DL, the “MEAN CORPUSCULAR VOLUME” value [2] was 60.97 fL and the MONOCYTE [2] was 1%. For the same compound, the NEUTROPHIL [2] was 11.67%, the “NUCLEATED RED BLOOD CELLS” value [2] was 0 /100WBC and the “PLATELET COUNT” value [2] was 1219.67 x10E3/uL. For the same compound, the “ALANINE AMINOTRANSFERASE” value [2] was 63.67 u/L, the ALBUMIN [2] was 4.13 G/DL and the “ALKALINE PHOSPHATASE” value [2] was 374.67 u/L. For the same compound, the “ASPARTATE AMINOTRANSFERASE” value [2] was 87.33 u/L, the “BLOOD UREA NITROGEN” value [2] was 18.33 mg/dL and the “CARBON DIOXIDE” value [2] was 30.67 mmol/L. The CHLORIDE [2] was 98.33 MEQ/L, the CHOLESTEROL [2] was 73 mg/dL and the “CREATINE PHOSPHOKINASE” value [2] was 308.67 u/L. For the same compound, the CREATININE [2] was 0.17 mg/dL, the GLUCOSE [2] was 148.33 mg/dL and the “LACTATE DEHYDROGENASE” value [2] was 222 u/L. For the same compound, the LIPASE [2] was 10 u/L, the PHOSPHORUS [2] was 11.57 mg/dL and the POTASSIUM [2] was 6.45 MEQ/L. For the same compound, the SODIUM [2] was 141.9 MEQ/L, the “TOTAL BILIRUBIN” value [2] was 0.17 mg/dL and the “TOTAL PROTEIN” value [2] was 5.83 G/DL. For the same compound, the “URIC ACID” value [2] was 1.37 mg/dL, the “ABSOLUTE BASOPHIL” value [3] was 0 CELLS/uL and the “ABSOLUTE EOSINOPHIL” value [3] was 0 CELLS/uL. For the same compound, the “ABSOLUTE LYMPHOCYTE” value [3] was 13149.67 CELLS/uL, the “ABSOLUTE MONOCYTE” value [3] was 243.33 CELLS/uL and the “ABSOLUTE SEGMENTED NEUTROPHIL” value [3] was 1007 CELLS/uL. For the same compound, the BASOPHIL [3] was 0%, the EOSINOPHIL [3] was 0% and the “ERYTHROCYTE COUNT” value [3] was 5.6 x10E6/uL. The HEMATOCRIT [3] was 35%, the HEMOGLOBIN [3] was 14 G/DL and the “LEUKOCYTE COUNT” value [3] was 14.4 x10E3/uL. The LYMPHOCYTE [3] was 91.33%, the “MEAN CORPUSCULAR HEMOGLOBIN” value [3] was 25.1 pg and the “MEAN CORPUSCULAR HEMOGLOBIN CONCENTRATION” value [3] was 40 G/DL. The “MEAN CORPUSCULAR VOLUME” value [3] was 62.67 fL, the MONOCYTE [3] was 1.67% and the NEUTROPHIL [3] was 7%. For the same compound, the “NUCLEATED RED BLOOD CELLS” value [3] was 0 /100WBC, the “PLATELET COUNT” value [3] was 1192 x10E3/uL and the “ALANINE AMINOTRANSFERASE” value [3] was 54.33 u/L. The ALBUMIN [3] was 4.1 G/DL, the “ALKALINE PHOSPHATASE” value [3] was 274.67 u/L and the “ASPARTATE AMINOTRANSFERASE” value [3] was 82 u/L. For the same compound, the “BLOOD UREA NITROGEN” value [3] was 18.67 mg/dL, the “CARBON DIOXIDE” value [3] was 28.67 mmol/L and the CHLORIDE [3] was 99.67 MEQ/L. The CHOLESTEROL [3] was 72 mg/dL, the “CREATINE PHOSPHOKINASE” value [3] was 240 u/L and the CREATININE [3] was 0.19 mg/dL. For the same compound, the GLUCOSE [3] was 154.67 mg/dL, the “LACTATE DEHYDROGENASE” value [3] was 169 u/L and the LIPASE [3] was 10 u/L. It also gave a PHOSPHORUS [3] of 10.83 mg/dL, a POTASSIUM [3] of 6.08 MEQ/L and an SODIUM [3] of 143.3 MEQ/L. The “TOTAL BILIRUBIN” value [3] was 0.27 mg/dL, the “TOTAL PROTEIN” value [3] was 6 G/DL and the “URIC ACID” value [3] was 1.3 mg/dL.

From ChEMBL document CHEMBL3885881, “DrugMatrix”
